Laboratory results as given in patent publication US9365559B2, “Crystal form of Dabrafenib and preparation method of use thereof” (Hangzhou Pushai Pharmaceutical Technology Co., LTD., priority 2013, dated 2016).
“Also recorded” adds a separate entry of the source.

What was measured:
Type in all cases: physicochemical
[1] = Dynamic vapor sorption (DVS) hygroscopicity; conditions: from DVS, 20~80% RH
Experimental: The dynamic vapor sorption analysis (DVS) data are collected by TA Instruments Q5000 TGA; the instrument control software is Thermal Advantage and the analysis software is Universal Analysis. Generally, take 1˜10 mg of the sample and place it in a platinum pan, and the weight changes of the sample are recorded during the course of the relative humidity changing from 0% to 80% and then to 0%. According to the specifics of the samples, different adsorption and desorption steps may be used.
The hygroscopicity is obtained by DVS testing of the weight changes between 20%-80% RH.

[2] = Storage stability test (XRPD before and after storing); conditions: for Storage stability (crystal form by XRPD): stored 3 months in desiccator at room temperature; for Storage stability (crystal form by XRPD) / Storage stability (crystal form): room temperature-97% RH, -75% RH, -44% RH or oven of 40° C.; for Storage stability (crystal form): stored for a long time in desiccator at room temperature
Description: The storage stability test is: storing the sample under constant conditions (i.e. constant humidity or constant temperature) for a certain time, and then comparing the XRPDs before and after storing.

[3] = Competition test (suspension of equal amounts stirred overnight, XRPD); conditions: for Competition test, comparison of stability (position in the rank order): in pure water, room temperature, stirred overnight
Description: The competition test is: take equal amount of the samples, and respectively place them in isopropanol or in a mixture of water (pure water) and ethanol (wherein the volume percentage of ethanol is 0%, 20%, 50%, 80% and 100%, respectively) to form a suspension, stir it overnight at room temperature, then compare their XRPDs.

[4] = Crystal form stability on stirring in or exposure to water, aqueous ethanol or other solvent; conditions: for crystal form stability when stirred: stirred in water or aqueous ethanol solution at room temperature or high temperature (40° C.); for crystal form stability in water: in water or other water containing system(s)
[5] = Crystal form stability during wet granulation tablet preparation (XRPD); conditions: for crystal form of API after physical blending with excipients: XRPD of Sample 1 vs Sample 3, lactose, microcrystalline cellulose, polyethylene glycol 6000; for crystal form of API in the wet granulation process: XRPD of Sample 2 vs Sample 1, 50% aqueous ethanol solution
Description: The Known Crystal Form 1, the Known Crystal Form 2 and Crystal Form VI of the present invention are examined for their stability during the formulation preparation of the wet granulation process.
The preparation process of the tablet is a parallel experiment.
(1) Blend API (selected from the Known Crystal Form 1, the Known Crystal Form 2 or Crystal Form VI of the present invention), lactose (monohydrate) and microcrystalline cellulose uniformly.
(2) Make the above mixture into soft materials by using an appropriate amount of 50% aqueous ethanol solution, screen to produce the wet granules and then dry the wet granules.
(3) Granulate the dried sample, blend with polyethylene glycol 6000 uniformly and then compress into tablets.
Respectively, take XRPD tests on the following samples obtained in the formulation preparing process of the Known Crystal Form 1, the Known Crystal Form 2 and Crystal Form VI of the present invention: (Sample 1) the sample obtained by physically blending API, lactose, microcrystalline cellulose with polyethylene glycol 6000 according to the preparation formula; (Sample 2) the sample obtained by granulating with API, lactose, microcrystalline cellulose and polyethylene glycol 6000 according to the “wet granulation” process (excluding the sample obtained after the Step (3)); (Sample 3) excluding API, the sample obtained by physically blending lactose, microcrystalline cellulose with polyethylene glycol 6000 according to the preparation formula.

[6] = Crystal form stability in capsules prepared by wet granulation (XRPD); conditions: for crystal form in capsules: capsules prepared by wet granulation process, XRPD
Description: The preparation of the capsules containing the crystal forms of the present invention.
3) Blend API (selected from the Known Crystal Form 1, the Known Crystal Form 2 and Crystal Form VI of the present invention), microcrystalline cellulose (avicel) and sodium carboxymethyl starch (SSG) uniformly.
4) Make the above mixture into soft materials by using an appropriate amount of 50% aqueous ethanol solution, then screen to produce the wet granules.
5) Dry the wet granules, grind and disperse uniformly and then transfer them into the capsules.

[7] = Crystal form stability in oral suspension (XRPD); conditions: for crystal form in oral suspension: XRPD
Experimental: The preparation of the oral suspension containing the crystal forms of the present invention.
API (selected from Crystal Form VI of Dabrafenib of the present invention): 2 g;
Blend API (selected from Crystal Form VI of Dabrafenib of the present invention), cocklebur gum, sodium dihydrogen citrate, methylparaben, syrupus simplex and orange flavor, add water to 1,000 mL and stir the mixture uniformly. After that, divide the solution into 100 bottles with 20 mg API in each bottle.

[8] = Particle size distribution (PSD), laser diffraction; conditions: for D10 / D50: dispersant water with 2% tween-80
Description: The particle size distribution (PSD) plot is obtained using Microtrac S3500 laser diffraction particle size analyzer. The method parameters are as follows: flow velocity of the dispersant is 50%; the dispersant is water (added with 2% tween-80); the sample refractivity is 1.58; the laser source wavelength is 780 nm; and the integral mode is volume.
(§1) The morphology comparison is obtained by PLM testing of particle shape and PSD testing of particle size.

[9] = Polarized light microscopy (PLM) morphology
Description: Polarized Light Microscope (PLM) plots are collected from XP-500E polarized light microscope (by Shanghai Changfang Optical Instrument Co., Ltd). Place a small amount of powder sample on a slide glass, drip some mineral oil to disperse the powder sample, place the cover slip, then place the sample on the loading table of XP-500E polarized light microscope, choose the appropriate magnitude to observe the morphology of the sample and take pictures thereof.
as §1

[10] = Thermogravimetric analysis (TGA), thermal stability; conditions: for decomposition temperature: TGA, 10° C./min, dry N2; for stability at high temperature (in words): conclusion from DSC/TGA test results
Experimental: The thermogravimetric analysis (TGA) data are collected by TA Instruments Q500 TGA; the instrument control software is Thermal Advantage and the analysis software is Universal Analysis. Generally, take 5˜15 mg sample and place it in a platinum pan, adopt the segmental high-resolution testing mode, and under the protection of 50 mL/min dry N2, heat the sample from room temperature to 300° C. at the heating rate of 10° C./min, the weight changes of the sample during the course are recorded by TA software simultaneously.

[11] = Crystal form stability during wet granulation tablet preparation (XRPD); conditions: tablet prepared by wet granulation, stored 6 months at 40° C./75% RH
[12] = Flowability observed during the experiments

| SMILES | hygroscopicity (in words) [1] | Storage stability (crystal form by XRPD) [2] | Storage stability (crystal form) [2] | Competition test, comparison of stability (position in the rank order) [3] | crystal form stability when stirred [4] | crystal form of API after physical blending with excipients [5] | crystal form of API in the wet granulation process [5] | crystal form stability in the wet granulation process or in the suspension [5] | crystal form in capsules [6] | crystal form in oral suspension [7] | D10 [8] | D50 [8] | Morphology (particle shape) [9] | decomposition temperature [10] | stability at high temperature (in words) [10] | crystal form stability in water [4] | also measured |
| --- | --- | --- | --- | --- | --- | --- | --- | --- | --- | --- | --- | --- | --- | --- | --- | --- | --- |
| CC(C)(C)c1nc(-c2cccc(NS(=O)(=O)c3c(F)cccc3F)c2F)c(-c2ccnc(N)n2)s1 [Crystal Form VI, N-[3-[5-(2-aminopyrimidin-4-yl)-2-(tert-butyl)thiazo-4-lyl]-2-fluorophenyl]-2,6-difluorobenzenesulfonamide] | not hygroscopic; also recorded: low hygroscopicity; also recorded: lower than that of the Known Crystal Form 1 | its crystal form did not change | stable when stored for a long time | >The Known Crystal Form 1 | keeps its form unchanged | keeps unchanged | stable; also recorded: more stable than the Known Crystal Form 1 and the Known Crystal Form 2 | keeps its form unchanged | stable | stable | 7 μm | 18 μm | fine crystals; also recorded: Fine particles | 271 °C | very stable at high temperature | – | crystal form stability after tableting ([5]; tablet): stable after tableting; crystal form in capsules on storage ([6]; capsules stored 6 months at 40° C./75% RH): still stable; crystal form in oral suspension on storage ([7]; oral suspension stored 6 months at 40° C./75% RH): still stable; stability of tablet on storage [11]: still stable |
| CC(C)(C)c1nc(-c2cccc(NS(=O)(=O)c3c(F)cccc3F)c2F)c(-c2ccnc(N)n2)s1 [Crystal Form VII, N-[3-[5-(2-aminopyrimidin-4-yl)-2-(tert-butyl)thiazo-4-lyl]-2-fluorophenyl]-2,6-difluorobenzenesulfonamide] | low hygroscopicity; also recorded: lower than that of the Known Crystal Form 1 | its crystal form does not change | stable when stored for a long time | more stable than the Known Crystal Form 1; also recorded: >The Known Crystal Form 2 | convert to Crystal Form VI of the present invention | – | – | – | – | – | 91 μm | 207 μm | rod-shaped crystals; also recorded: good morphology; also recorded: rod-shaped particles in large size; also recorded: Rod shape | 270 °C | very stable at high temperature | – | particle size compared with known crystal forms [8]: larger particle size than those of the Known Crystal Form 1 and the Known Crystal Form 2; also recorded: larger than that of the Known Crystal Form 1 and the Known Crystal Form 2; flowability [12]: good and good flowability |
| CC(C)(C)c1nc(-c2cccc(NS(=O)(=O)c3c(F)cccc3F)c2F)c(-c2ccnc(N)n2)s1 [Known Crystal Form 1, N-{3-[5-(2-amino-4-pyrimidinyl)-2-(1,1-dimethylethyl)-1,3-thiazol-4-yl]-2-fluorophenyl}-2,6-difluorobenzenesulfonamide, reference compound] | some hygroscopicity | – | – | >Crystal Form VII of the present | convert to Crystal Form VI of the present invention; also recorded: unstable | keeps unchanged | partially or totally converted to Crystal Form VI of the present invention | unstable | unstable and has converted to Crystal Form VI of the present invention | unstable and has converted to Crystal Form VI of the present invention | – | – | small block-shaped crystals | – | – | readily converts to other form(s) | Competition test, comparison of stability ([3]; in isopropanol or ethanol): Form 1 >The other three crystal forms. |
| CC(C)(C)c1nc(-c2cccc(NS(=O)(=O)c3c(F)cccc3F)c2F)c(-c2ccnc(N)n2)s1 [Known Crystal Form 2, N-[3-[5-(2-aminopyrimidin-4-yl)-2-(tert-butyl)thiazo-4-lyl]-2-fluorophenyl]-2,6-difluorobenzenesulfonamide, reference compound] | – | – | – | invention >The Known Crystal Form 2 | convert to Crystal Form VI of the present invention; also recorded: unstable | keeps unchanged | partially or totally converted to Crystal Form VI of the present invention | unstable | unstable and has converted to Crystal Form VI of the present invention | unstable and has converted to Crystal Form VI of the present invention | – | – | small block-shaped crystals | – | – | would convert to other form(s) | crystal form conversion in dichloromethane ([4]; stirring in dichloromethane followed by filtering and drying): can convert to the Known Crystal Form 1 |
| CC(C)(C)c1nc(-c2cccc(NS(=O)(=O)c3c(F)cccc3F)c2F)c(-c2ccnc(N)n2)s1 [Known Crystal Form 3, N-[3-[5-(2-aminopyrimidin-4-yl)-2-(tert-butyl)thiazo-4-lyl]-2-fluorophenyl]-2,6-difluorobenzenesulfonamide, reference compound] | – | – | – | – | – | – | – | – | – | – | – | – | – | – | – | may convert to other form(s) | crystal form stability on standing ([2]; placed at room temperature): extremely unstable; also recorded: can convert to the Known Crystal Form 1; also recorded: converts to the Known Crystal Form 1 |
